Measured values published in patent US20080103185A1, “Process for Producing Thiazolidinedione Compound and Production Intermediate Thereof” (DAIICHI SANKYO COMPANY, LIMITED, priority 2005, published 2008).

Assay: Test for quality and stability over time of compound (III^1) crystals, HPLC peak area content
Format: physicochemical
Settings: HPLC area %
Description: Test for quality and stability over time of tert-butyl N-{2-{4-[(2,4-dioxothiazolidin-5-yl)methyl]phenoxyacetylamino}-5-methoxyphenyl}-N-methylcarbamate (compound (III^1))
Quality of four samples (the crystals obtained in Example 3, the crystals obtained in Example 3 and stored at 40° C. for 40 days, the purified crystals obtained in Example 4 and the purified crystals obtained in Example 4 and stored at 40° C. for 42 days) was analyzed. Quality was analyzed by the following method.
A solution of about 10 mg/L of the compound (III^1) in acetonitrile-water (4:1) was prepared.
About 20 μL of the sample solution was analyzed by high-performance liquid chromatography under the following conditions.
Column: L-column ODS 4.6×250 mm (Chemicals-Evaluation and Research Institute, Japan)
Mobile phase: 0.02 M ammonium acetate solution/acetonitrile mixture (55:45)
Detection wavelength: 220 nm
Measurement temperature: 40° C.
Peak areas were determined from chromatograms, respectively, to provide a content of each component (%) 100× (peak area of each component)/(total peak area of all components).

Row | SMILES | content of component at relative retention time 3.01 (purified crystals stored at 40° C. for 42 days, immediately after drying 0.04) | content of component at relative retention time 0.43 (purified crystals stored at 40° C. for 42 days, immediately after drying 0.07) | content of component at relative retention time 0.46 (purified crystals stored at 40° C. for 42 days, immediately after drying 0.08) | content of component at relative retention time 0.21 (purified crystals stored at 40° C. for 42 days, immediately after drying 0.19) | Total of other components (purified crystals stored at 40° C. for 42 days, immediately after drying 0.25) | Total of impurities (purified crystals stored at 40° C. for 42 days, immediately after drying 0.63) | content of test substance (relative retention time 1.00) (purified crystals stored at 40° C. for 42 days, immediately after drying 99.37) | content of component at relative retention time 3.01 (crystals stored at 40° C. for 40 days, immediately after drying 0.05) | content of component at relative retention time 0.46 (crystals stored at 40° C. for 40 days, immediately after drying 0.16) | content of component at relative retention time 0.43 (crystals stored at 40° C. for 40 days, immediately after drying 0.39) | Total of other components (crystals stored at 40° C. for 40 days, immediately after drying 0.54) | content of component at relative retention time 0.21 (crystals stored at 40° C. for 40 days, immediately after drying 0.60) | Total of impurities (crystals stored at 40° C. for 40 days, immediately after drying 1.74) | content of test substance (relative retention time 1.00) (crystals stored at 40° C. for 40 days, immediately after drying 98.26)
1 | COc1ccc(NC(=O)COc2ccc(CC3SC(=O)NC3=O)cc2)c(N(C)C(=O)OC(C)(C)C)c1 (centres unmarked) [Purified crystals of Example 4, tert-Butyl N-{2-{4-[(2,4-dioxothiazolidin-5-yl)methyl]phenoxyacetylamino}-5-methoxyphenyl}-N-methylcarbamate] | 0.03% | 0.07% | 0.09% | 0.26% | 0.20% | 0.65% | 99.35% | – | – | – | – | – | – | –
2 | COc1ccc(NC(=O)COc2ccc(CC3SC(=O)NC3=O)cc2)c(N(C)C(=O)OC(C)(C)C)c1 (centres unmarked) [Crystals of Example 3, tert-Butyl N-{2-{4-[(2,4-dioxothiazolidin-5-yl)methyl]phenoxyacetylamino}-5-methoxyphenyl}-N-methylcarbamate] | – | – | – | – | – | – | – | 0.05% | 0.48% | 0.32% | 0.56% | 0.63% | 2.04% | 97.96%
